Biological target: T1, membrane ATP synthase (Homo sapiens, UniProt P06576+P25705+P36542)
T1 construct: Measurement of the effect of OPFP1 on the production of extracellular ATP in the SH-SY5Y cell line; endogenous in cells; host or cells: SH-SY5Y human neuroblastoma cells
Assay: Production of extracellular ATP in SH-SY5Y cell line
Assay type: cell-based
Conditions: after 5′ pre-incubation, OPFP1 mixture 10 μg/ml, piceatannol 4 μM, read-out: maximum inhibition of ATP synthesis
Protocol: FIG. 6. Production of extracellular ATP. Measurement of the effect of OPFP1 on the production of extracellular ATP in the SH-SY5Y cell line. (A) analysis of the effects on ATP production at different pre-incubation times; (B) evaluation of the effects elicited by different concentrations of the OPFP1 mixture (results are the mean of three independent experiments).
The mixture not only binds this enzyme complex but also modulates its activity. As positive control, piceatannol (3,4,3′,5′-tetrahydroxy-trans-stilbene) was used, that is a resveratrol metabolite well-known for its inhibitory activity on the production of extracellular ATP.

Oc1cc(O)cc(/C=C/c2ccc(O)c(O)c2)c1 [piceatannol, 3,4,3′,5′-tetrahydroxy-trans-stilbene]
inhibition at 4 µM: 97%

— patent US20110311562A1, “Glycolipid Mixture with Anti-Inflammatory Activity Obtained from Oscillatoria Planktothrix” (priority 2009, published 2011)
